What was measured:
Assay type in all cases: biochemical
Flt-1 = biological target: T1, Flt-1 (Homo sapiens, UniProt P17948); assay: Kinase inhibition assay (33P transfer), Flt-1
T1 construct: Kinases are expressed as either kinase domains or full length constructs; made in house
Procedure, shortened: (§1)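 Using immobilised substrate copolymers (poly(Glu,Tyr) 4:1; poly(Arg,Ser) 3:1) and [33P]ATP, purified fusion kinases were allowed to react; plates were then rinsed in 0.5% phosphoric acid and counted in a scintillation detector. Half-maximal inhibition of label transfer defines IC50.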

FGFR1 = biological target: T2, FGFR1 (Homo sapiens, UniProt P11362); assay: Kinase inhibition assay (33P transfer), FGFR1; details: read-out: FGFR1-1
T2 construct: Kinases are expressed as either kinase domains or full length constructs; made in house
T2 sequence (P11362 22-822, species assumed): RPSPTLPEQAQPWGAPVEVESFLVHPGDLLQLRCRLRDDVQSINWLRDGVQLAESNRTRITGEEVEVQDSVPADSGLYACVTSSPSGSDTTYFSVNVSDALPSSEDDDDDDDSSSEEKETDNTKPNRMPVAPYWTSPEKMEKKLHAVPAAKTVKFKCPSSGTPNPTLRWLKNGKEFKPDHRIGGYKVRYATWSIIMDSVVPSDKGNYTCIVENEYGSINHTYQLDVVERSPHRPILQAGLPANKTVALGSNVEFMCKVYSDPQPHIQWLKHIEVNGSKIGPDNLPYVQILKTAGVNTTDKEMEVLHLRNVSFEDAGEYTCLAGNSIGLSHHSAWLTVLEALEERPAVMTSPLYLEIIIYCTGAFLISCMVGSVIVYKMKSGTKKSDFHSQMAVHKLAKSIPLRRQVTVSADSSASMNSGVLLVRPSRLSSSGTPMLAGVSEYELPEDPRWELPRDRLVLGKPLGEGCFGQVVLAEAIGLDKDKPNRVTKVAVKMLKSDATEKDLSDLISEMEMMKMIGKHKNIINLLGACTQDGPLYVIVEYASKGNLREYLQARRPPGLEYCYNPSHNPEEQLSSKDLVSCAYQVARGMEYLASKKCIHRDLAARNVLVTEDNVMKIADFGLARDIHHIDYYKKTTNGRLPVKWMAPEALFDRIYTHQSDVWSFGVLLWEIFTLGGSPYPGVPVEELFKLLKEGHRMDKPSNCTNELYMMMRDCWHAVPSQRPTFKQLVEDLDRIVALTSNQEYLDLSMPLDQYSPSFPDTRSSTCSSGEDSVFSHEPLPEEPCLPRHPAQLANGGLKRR

EPHB4 = biological target: T3, EPHB4 (Homo sapiens, UniProt P54760); assay: Kinase inhibition assay (33P transfer), EPHB4; details: read-out: EPHB4-1
T3 construct: Kinases are expressed as either kinase domains or full length constructs; made in house
T3 sequence (P54760 16-987): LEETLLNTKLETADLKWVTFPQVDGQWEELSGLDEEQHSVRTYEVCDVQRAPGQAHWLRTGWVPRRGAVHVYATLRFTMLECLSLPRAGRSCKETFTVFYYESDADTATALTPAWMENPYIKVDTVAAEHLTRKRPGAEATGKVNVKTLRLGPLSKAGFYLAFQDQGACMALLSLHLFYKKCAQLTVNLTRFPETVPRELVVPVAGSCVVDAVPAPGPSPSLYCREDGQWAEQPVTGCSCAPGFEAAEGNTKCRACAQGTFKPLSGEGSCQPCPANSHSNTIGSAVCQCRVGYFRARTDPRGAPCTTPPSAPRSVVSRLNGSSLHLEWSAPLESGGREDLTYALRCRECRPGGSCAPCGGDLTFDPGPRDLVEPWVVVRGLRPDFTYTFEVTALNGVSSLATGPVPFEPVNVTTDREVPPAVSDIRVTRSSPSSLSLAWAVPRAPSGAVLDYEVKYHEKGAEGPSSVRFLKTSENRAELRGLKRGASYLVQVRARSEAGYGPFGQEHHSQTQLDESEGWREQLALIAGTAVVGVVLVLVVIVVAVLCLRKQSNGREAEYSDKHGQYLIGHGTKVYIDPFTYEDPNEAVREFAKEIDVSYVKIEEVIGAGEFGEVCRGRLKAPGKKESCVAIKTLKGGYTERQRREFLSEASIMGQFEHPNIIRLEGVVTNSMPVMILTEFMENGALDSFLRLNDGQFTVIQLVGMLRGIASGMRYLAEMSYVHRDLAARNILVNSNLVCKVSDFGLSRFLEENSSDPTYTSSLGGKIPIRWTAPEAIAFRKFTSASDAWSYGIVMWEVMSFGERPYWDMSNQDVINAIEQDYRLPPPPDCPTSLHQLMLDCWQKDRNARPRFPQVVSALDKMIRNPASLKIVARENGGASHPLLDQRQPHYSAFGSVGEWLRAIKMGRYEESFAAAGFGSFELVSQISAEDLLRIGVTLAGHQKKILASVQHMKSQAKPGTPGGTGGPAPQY

Ret-1 = biological target: T4, Ret-1 (Homo sapiens, UniProt P07949); assay: Kinase inhibition assay (33P transfer), Ret; details: Table 6, Ret-1 kinase inhibition class
T4 construct: Kinases are expressed as either kinase domains or full length constructs; made in house

Lyn = biological target: T5, Lyn (Homo sapiens, UniProt P07948); assay: Kinase inhibition assay (33P transfer), Lyn; details: Table 6, Lyn-1 kinase inhibition class
T5 construct: Kinases are expressed as either kinase domains or full length constructs; made in house
T5 sequence (P07948 whole entry, species assumed, the tested form may be a part): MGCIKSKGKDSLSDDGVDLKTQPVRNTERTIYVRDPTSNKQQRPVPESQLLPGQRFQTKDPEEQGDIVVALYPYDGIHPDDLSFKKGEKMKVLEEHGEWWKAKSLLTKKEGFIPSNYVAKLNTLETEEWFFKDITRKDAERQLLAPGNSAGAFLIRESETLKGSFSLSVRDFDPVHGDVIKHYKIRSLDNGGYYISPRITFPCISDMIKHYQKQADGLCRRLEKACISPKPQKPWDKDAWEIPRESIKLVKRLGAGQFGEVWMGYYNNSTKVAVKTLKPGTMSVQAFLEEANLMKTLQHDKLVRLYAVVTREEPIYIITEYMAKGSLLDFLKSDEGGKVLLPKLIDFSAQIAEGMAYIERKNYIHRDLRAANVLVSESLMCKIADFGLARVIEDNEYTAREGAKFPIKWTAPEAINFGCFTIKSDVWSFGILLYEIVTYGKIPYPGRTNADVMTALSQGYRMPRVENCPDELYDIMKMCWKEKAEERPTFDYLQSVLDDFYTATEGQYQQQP
Procedure, shortened: as §1

Src = biological target: T6, Src (Homo sapiens, UniProt P12931); assay: Kinase inhibition assay (33P transfer), Src; details: Table 6, Src-1 kinase inhibition class
T6 construct: Kinases are expressed as either kinase domains or full length constructs; made in house
T6 sequence (P12931 whole entry, species assumed, the tested form may be a part): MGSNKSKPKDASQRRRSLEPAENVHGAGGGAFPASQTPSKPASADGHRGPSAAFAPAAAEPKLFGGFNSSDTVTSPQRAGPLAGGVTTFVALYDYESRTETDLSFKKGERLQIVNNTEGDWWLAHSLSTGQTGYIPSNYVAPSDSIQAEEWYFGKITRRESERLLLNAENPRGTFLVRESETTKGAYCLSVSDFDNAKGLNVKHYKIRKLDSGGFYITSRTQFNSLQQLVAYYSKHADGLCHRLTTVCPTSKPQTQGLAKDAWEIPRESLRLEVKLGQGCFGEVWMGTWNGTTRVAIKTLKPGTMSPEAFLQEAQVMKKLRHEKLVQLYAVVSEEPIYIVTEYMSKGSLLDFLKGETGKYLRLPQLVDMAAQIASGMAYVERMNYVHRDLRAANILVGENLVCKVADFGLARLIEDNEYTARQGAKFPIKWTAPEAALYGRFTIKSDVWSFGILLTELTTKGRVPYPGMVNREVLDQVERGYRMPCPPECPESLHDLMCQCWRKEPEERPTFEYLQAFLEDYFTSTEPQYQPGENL
Procedure, shortened: as §1

Fyn = biological target: T7, Fyn (Homo sapiens, UniProt P06241); assay: Kinase inhibition assay (33P transfer), Fyn; details: read-out: Fyn-1
T7 construct: Kinases are expressed as either kinase domains or full length constructs; made in house
T7 sequence (P06241 whole entry, species assumed, the tested form may be a part): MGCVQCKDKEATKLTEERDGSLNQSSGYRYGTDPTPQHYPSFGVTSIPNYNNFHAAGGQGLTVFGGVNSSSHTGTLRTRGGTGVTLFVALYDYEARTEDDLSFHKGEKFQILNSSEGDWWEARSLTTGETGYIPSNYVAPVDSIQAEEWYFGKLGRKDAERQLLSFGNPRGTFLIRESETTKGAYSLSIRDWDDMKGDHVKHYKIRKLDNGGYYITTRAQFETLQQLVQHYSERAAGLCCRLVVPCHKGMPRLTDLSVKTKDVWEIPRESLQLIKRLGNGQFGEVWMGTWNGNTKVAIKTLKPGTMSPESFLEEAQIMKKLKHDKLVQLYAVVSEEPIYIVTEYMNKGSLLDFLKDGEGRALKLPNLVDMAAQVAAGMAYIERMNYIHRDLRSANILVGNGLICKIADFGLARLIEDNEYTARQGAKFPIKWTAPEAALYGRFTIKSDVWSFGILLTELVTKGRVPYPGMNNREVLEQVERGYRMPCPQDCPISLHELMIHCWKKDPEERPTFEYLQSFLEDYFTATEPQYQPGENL
Procedure, shortened: as §1

Hck-1 = biological target: T8, Hck-1 (Homo sapiens, UniProt P08631); assay: Kinase inhibition assay (33P transfer), Hck; details: Table 6, Hck-1 kinase inhibition class
T8 construct: Kinases are expressed as either kinase domains or full length constructs; made in house

ErbB4 = biological target: T9, ErbB4 (Homo sapiens, UniProt Q15303); assay: Kinase inhibition assay (33P transfer), ErbB4; details: read-out: ErbB4-1
T9 construct: Kinases are expressed as either kinase domains or full length constructs; made in house
T9 sequence (Q15303 26-1308, species assumed): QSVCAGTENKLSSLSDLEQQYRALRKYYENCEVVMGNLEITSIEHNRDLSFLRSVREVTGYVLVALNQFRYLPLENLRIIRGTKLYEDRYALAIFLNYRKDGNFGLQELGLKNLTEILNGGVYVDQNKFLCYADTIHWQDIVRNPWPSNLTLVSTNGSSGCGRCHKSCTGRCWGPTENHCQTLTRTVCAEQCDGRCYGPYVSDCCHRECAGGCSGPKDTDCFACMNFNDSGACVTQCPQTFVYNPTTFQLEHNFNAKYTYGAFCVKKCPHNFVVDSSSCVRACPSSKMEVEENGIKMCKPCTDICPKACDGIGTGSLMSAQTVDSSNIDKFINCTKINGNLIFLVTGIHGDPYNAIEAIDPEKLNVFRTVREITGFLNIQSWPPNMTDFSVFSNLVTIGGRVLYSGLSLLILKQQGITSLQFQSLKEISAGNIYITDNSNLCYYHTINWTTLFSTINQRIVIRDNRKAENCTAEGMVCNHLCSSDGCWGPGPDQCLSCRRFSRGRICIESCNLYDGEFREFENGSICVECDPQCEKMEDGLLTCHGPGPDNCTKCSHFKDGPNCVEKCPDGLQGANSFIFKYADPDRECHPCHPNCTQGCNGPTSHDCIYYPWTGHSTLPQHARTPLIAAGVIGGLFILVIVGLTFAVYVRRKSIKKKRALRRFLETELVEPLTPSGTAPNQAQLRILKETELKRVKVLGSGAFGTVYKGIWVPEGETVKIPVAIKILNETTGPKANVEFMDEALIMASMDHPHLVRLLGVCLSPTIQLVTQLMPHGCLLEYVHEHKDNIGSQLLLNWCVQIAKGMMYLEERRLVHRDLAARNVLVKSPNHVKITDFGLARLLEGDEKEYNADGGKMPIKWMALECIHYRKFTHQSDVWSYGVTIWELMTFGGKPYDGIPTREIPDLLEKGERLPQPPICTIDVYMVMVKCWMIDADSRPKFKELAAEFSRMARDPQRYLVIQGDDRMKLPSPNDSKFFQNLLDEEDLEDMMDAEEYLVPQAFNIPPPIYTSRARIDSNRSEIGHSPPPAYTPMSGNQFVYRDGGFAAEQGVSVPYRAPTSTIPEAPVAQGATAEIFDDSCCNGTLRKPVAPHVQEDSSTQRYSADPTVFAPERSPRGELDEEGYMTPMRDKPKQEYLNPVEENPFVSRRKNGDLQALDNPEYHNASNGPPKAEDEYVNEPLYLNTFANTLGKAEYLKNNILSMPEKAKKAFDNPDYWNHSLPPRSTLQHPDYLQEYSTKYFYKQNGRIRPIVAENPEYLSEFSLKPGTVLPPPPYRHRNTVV

Lck = biological target: T10, Lck (Homo sapiens, UniProt P06239); assay: Kinase inhibition assay (33P transfer), Lck; details: read-out: Lck-1
T10 construct: Kinases are expressed as either kinase domains or full length constructs; made in house
Procedure, shortened: (§2)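 Recombinant kinase-domain or full-length fusion proteins (GST or His tag) served as enzyme. Substrate poly(Glu,Tyr) 4:1 or poly(Arg,Ser) 3:1 was bound to the plate; transferred 33P was read by liquid scintillation following acid washing.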

PDGFRB = biological target: T11, PDGFRB (Homo sapiens, UniProt P09619); assay: Kinase inhibition assay (33P transfer), PDGFRB; details: read-out: PDGFRB-1
T11 construct: Kinases are expressed as either kinase domains or full length constructs; made in house

IGFR-1 = biological target: T12, IGFR-1 (Homo sapiens, UniProt P08069); assay: Kinase inhibition assay, IGFR-1 (Table 2); details: Table 2, kinase inhibition class
T12 construct: Kinases are expressed as either kinase domains or full length constructs; made in house

Itk = biological target: T13, Itk (Homo sapiens, UniProt Q08881); assay: Kinase inhibition assay (33P transfer), Itk; details: read-out: Itk-1
T13 construct: Kinases are expressed as either kinase domains or full length constructs; made in house
T13 sequence (Q08881 1-620): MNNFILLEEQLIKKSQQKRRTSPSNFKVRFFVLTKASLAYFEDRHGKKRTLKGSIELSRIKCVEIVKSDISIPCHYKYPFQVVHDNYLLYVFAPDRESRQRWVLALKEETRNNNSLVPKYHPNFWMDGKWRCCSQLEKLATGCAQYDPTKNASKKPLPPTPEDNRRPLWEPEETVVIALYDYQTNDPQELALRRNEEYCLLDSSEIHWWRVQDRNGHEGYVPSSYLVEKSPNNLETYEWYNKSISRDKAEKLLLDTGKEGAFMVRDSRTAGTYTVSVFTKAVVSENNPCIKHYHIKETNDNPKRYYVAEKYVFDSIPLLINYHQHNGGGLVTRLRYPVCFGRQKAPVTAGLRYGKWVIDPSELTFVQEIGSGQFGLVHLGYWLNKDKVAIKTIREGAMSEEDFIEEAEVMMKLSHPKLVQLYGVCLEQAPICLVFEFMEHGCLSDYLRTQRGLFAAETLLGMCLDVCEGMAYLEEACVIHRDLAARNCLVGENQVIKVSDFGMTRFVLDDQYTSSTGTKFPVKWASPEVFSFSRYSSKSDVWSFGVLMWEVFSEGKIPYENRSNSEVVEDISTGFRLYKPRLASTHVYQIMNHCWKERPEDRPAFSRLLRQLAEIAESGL
Procedure, shortened: as §1

ErbB2 = biological target: T14, ErbB2 (Homo sapiens, UniProt P04626); assay: Kinase inhibition assay (33P transfer), ErbB2; details: read-out: ErbB2-2
T14 construct: Kinases are expressed as either kinase domains or full length constructs; made in house
Procedure, shortened: as §1

c-Met = biological target: T15, c-Met (Homo sapiens, UniProt P08581); assay: Kinase inhibition assay (33P transfer), c-Met; details: Table 2, kinase inhibition class; read-out: Met-1
T15 construct: Kinases are expressed as either kinase domains or full length constructs; made in house
Procedure, shortened: as §1

Zap-70 = biological target: T16, Zap-70 (Homo sapiens, UniProt P43403); assay: Kinase inhibition assay (33P transfer), Zap-70; details: read-out: Zap-1
T16 construct: Kinases are expressed as either kinase domains or full length constructs; made in house
T16 sequence (P43403 1-619): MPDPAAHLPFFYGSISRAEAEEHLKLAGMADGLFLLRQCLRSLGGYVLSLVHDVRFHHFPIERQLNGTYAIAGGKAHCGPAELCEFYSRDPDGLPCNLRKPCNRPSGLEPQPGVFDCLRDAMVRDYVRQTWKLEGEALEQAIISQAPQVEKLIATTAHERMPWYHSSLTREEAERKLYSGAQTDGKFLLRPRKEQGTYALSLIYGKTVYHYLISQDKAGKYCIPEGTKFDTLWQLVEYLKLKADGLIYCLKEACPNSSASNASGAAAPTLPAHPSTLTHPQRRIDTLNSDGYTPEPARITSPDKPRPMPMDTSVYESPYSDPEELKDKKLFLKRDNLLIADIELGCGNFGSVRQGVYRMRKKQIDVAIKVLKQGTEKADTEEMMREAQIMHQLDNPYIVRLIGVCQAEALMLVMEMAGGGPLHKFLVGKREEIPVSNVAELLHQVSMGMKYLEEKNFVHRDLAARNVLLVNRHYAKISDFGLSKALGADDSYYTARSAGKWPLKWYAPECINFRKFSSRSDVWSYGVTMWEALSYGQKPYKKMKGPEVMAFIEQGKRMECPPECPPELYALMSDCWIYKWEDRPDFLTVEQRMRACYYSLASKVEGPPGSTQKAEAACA
Procedure, shortened: as §2

EGFR = biological target: T17, EGFR (Homo sapiens, UniProt P00533); assay: Kinase inhibition assay (33P transfer), EGFR; details: Table 2, kinase inhibition class; read-out: EGFR-1
T17 construct: Kinases are expressed as either kinase domains or full length constructs; made in house
Procedure, shortened: as §1

AKT = biological target: T18, AKT (Homo sapiens, UniProt Q9Y243); assay: Kinase inhibition assay (33P transfer), AKT; details: Table 2, kinase inhibition class; read-out: AKT3-1
T18 construct: Kinases are expressed as either kinase domains or full length constructs; made in house
Procedure, shortened: as §2

Kdr = biological target: T19, Kdr (Homo sapiens, UniProt P35968); assay: Kinase inhibition assay (33P transfer), Kdr; details: read-out: KDR-1
T19 construct: Kinases are expressed as either kinase domains or full length constructs; made in house
Procedure, shortened: as §2

Tek = biological target: T20, Tek (Homo sapiens, UniProt Q02763); assay: Kinase inhibition assay (33P transfer), Tek; details: read-out: Tek-1
T20 construct: Kinases are expressed as either kinase domains or full length constructs; made in house
Procedure, shortened: as §1

T1 sequence (P17948 27-1338, species assumed): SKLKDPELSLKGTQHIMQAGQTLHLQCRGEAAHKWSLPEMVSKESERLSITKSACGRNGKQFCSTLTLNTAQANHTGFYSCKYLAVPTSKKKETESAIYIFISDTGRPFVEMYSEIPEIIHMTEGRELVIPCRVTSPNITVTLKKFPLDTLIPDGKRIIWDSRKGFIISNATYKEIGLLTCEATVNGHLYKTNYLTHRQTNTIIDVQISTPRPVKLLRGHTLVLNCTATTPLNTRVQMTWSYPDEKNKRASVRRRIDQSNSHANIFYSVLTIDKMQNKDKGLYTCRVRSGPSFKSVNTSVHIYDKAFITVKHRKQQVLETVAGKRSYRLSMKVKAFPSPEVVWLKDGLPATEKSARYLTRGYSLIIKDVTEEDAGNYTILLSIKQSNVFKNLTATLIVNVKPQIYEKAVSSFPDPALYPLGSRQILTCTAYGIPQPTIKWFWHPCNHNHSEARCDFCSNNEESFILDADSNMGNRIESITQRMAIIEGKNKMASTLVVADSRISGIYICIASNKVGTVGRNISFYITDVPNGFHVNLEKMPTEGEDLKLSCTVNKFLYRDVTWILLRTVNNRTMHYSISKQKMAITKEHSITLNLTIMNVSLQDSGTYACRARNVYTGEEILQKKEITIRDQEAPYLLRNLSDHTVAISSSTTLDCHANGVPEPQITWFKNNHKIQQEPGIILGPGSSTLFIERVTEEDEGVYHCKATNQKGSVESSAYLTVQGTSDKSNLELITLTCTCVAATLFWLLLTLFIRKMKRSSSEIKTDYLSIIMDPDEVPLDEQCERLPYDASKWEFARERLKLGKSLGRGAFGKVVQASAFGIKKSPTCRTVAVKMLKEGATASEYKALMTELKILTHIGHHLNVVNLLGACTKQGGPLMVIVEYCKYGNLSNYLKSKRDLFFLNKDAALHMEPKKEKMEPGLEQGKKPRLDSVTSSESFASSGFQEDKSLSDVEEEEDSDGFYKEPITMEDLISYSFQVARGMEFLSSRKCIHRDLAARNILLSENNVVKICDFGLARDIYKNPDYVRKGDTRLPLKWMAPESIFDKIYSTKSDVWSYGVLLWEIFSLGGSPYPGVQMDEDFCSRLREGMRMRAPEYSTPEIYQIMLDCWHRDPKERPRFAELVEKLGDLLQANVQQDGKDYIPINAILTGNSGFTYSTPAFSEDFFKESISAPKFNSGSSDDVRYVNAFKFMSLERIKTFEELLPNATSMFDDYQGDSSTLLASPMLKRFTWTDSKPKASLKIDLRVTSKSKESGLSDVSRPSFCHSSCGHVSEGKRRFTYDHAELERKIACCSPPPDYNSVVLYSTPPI

IC50 (Flt-1) [µM]	IC50 (FGFR1) [µM]	IC50 (EPHB4) [µM]	IC50 (Ret-1) [µM]	IC50 (Lyn) [µM]	IC50 (Src) [µM]	IC50 (Fyn) [µM]	IC50 (Hck-1) [µM]	IC50 (ErbB4) [µM]	IC50 (Lck) [µM]	IC50 (PDGFRB) [µM]	IC50 (IGFR-1) [µM]	IC50 (Itk) [µM]	IC50 (ErbB2) [µM]	IC50 (c-Met) [µM]	IC50 (Zap-70) [µM]	IC50 (EGFR) [µM]	IC50 (AKT) [µM]	IC50 (Kdr) [µM]	IC50 (Tek) [µM]	Structure (SMILES)
0.935 to 5.61	0.935 to 5.61	< 0.935	< 0.935	0.935 to 5.61	0.935 to 5.61	5.61 to 8.18	> 10.5	8.18 to 10.5	–	–	–	–	–	–	–	–	–	–	–	COc1cc(Nc2ncnc(-n3c(N)nc4cc(Cl)ccc43)n2)cc(OC)c1OC [Compound 296]
< 0.779	< 0.779	–	< 0.779	< 0.779	0.779 to 4.67	0.779 to 4.67	> 8.76	4.67 to 6.82	< 0.779	< 0.779	6.82 to 8.76	> 8.76	0.779 to 4.67	> 8.76	> 8.76	0.779 to 4.67	> 8.76	< 0.779	4.67 to 6.82	COc1cc(Nc2ncnc(-n3c(N[C@@H](CO)c4ccccc4)nc4ccccc43)n2)cc(OC)c1OC [Compound 1036]
> 10.3	0.913 to 5.48	–	0.913 to 5.48	0.913 to 5.48	5.48 to 7.99	> 10.3	> 10.3	> 10.3	0.913 to 5.48	< 0.913	0.913 to 5.48	> 10.3	0.913 to 5.48	> 10.3	> 10.3	< 0.913	> 10.3	5.48 to 7.99	> 10.3	COc1cc(Nc2ncnc(Nc3ccc(Cl)c4ccccc34)n2)cc(OC)c1OC [Compound 1031]

Further lines, the molecule ahead of its results:

Structure (SMILES)	IC50 (Flt-1) [µM]	IC50 (FGFR1) [µM]	IC50 (EPHB4) [µM]	IC50 (Ret-1) [µM]	IC50 (Lyn) [µM]	IC50 (Src) [µM]	IC50 (Fyn) [µM]	IC50 (Hck-1) [µM]	IC50 (ErbB4) [µM]	IC50 (Lck) [µM]	IC50 (PDGFRB) [µM]	IC50 (IGFR-1) [µM]	IC50 (Itk) [µM]	IC50 (ErbB2) [µM]	IC50 (c-Met) [µM]	IC50 (Zap-70) [µM]	IC50 (EGFR) [µM]	IC50 (AKT) [µM]	IC50 (Kdr) [µM]	IC50 (Tek) [µM]
COc1cc(Nc2ncnc(-n3c(N)nc4cc(C(F)(F)F)ccc43)n2)cc(OC)c1OC [Compound 292]	0.867 to 5.2	7.59 to 9.75	0.867 to 5.2	0.867 to 5.2	0.867 to 5.2	0.867 to 5.2	5.2 to 7.59	> 9.75	> 9.75	–	–	–	–	–	–	–	–	–	–	–
COc1cc(Nc2ncnc(-n3c(N)nc4cc([N+](=O)[O-])ccc43)n2)cc(OC)c1OC [Compound 294]	> 10.3	> 10.3	0.912 to 5.47	0.912 to 5.47	> 10.3	> 10.3	> 10.3	> 10.3	> 10.3	–	–	–	–	–	–	–	–	–	–	–

From US7074789B2, “Kinase inhibitors” (Amgen Inc., priority 1999, dated 2006)
